“Also recorded” adds a separate entry of the source.
Experiments:
BRD9 [1] = molecular target: T1, BRD9 (Homo sapiens, UniProt Q9H8M2); assay: BRD9-ligand displacement AlphaScreen; type: binding
T1 construct: A construct of human BRD9 covering residues 134-0245 in the pET28PP vector; made in house; host or cells: E. coli BL21 (DE3)
T1 sequence (Q9H8M2 134-245 limits assumed): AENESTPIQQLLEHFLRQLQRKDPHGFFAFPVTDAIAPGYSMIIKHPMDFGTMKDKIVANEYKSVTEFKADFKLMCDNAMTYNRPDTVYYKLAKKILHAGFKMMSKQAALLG
Method: BRD9 assays were performed with minimal modifications from the manufacturer's protocol (PerkinElmer, USA). All reagents were diluted in 50 mM HEPES, 150 mM NaCl, 0.1% w/v BSA, 0.01% w/v Tween20, pH 7.5. […] Plates were spun down at 150×g, and 100 nL of DMSO compound stock was added from pre-diluted plates by pin transfer using a Janus Workstation (PerkinElmer, USA). Under low light, a 2× suspension of Ni-coated Acceptor Beads and Streptavidin Donor Beads, was then added at 10 ul/well to a final concentration of 5 μg/ml by EL406 automated liquid handler (Biotek, USA).

BRD9 [2] = molecular target: T2, BRD9 (Homo sapiens, UniProt Q9H8M2); assay: BRD9 degradation / cellular activity (Western blot, cell line not stated); settings: cell line not given
T2 sequence (Q9H8M2 1-597): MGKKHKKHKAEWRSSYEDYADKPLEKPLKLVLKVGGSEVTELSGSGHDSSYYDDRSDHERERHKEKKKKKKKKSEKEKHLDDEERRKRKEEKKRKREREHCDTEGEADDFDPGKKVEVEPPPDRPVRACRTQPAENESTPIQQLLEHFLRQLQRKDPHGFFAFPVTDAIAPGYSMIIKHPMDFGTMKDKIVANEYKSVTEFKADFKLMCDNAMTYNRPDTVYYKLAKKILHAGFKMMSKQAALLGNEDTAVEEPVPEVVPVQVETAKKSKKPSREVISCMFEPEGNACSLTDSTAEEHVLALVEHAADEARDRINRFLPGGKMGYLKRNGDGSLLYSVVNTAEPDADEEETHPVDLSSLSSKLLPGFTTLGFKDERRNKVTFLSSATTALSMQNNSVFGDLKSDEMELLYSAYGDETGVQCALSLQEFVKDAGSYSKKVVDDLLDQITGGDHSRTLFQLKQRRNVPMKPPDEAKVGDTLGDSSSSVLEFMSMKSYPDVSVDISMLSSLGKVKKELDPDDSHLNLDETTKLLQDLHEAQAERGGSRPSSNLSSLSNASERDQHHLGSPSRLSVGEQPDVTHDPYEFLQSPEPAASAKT

BRD4 = BRD4 (Homo sapiens, UniProt O60885); assay: BRD4 immunoblot in MOLM-13; settings: MOLM-13, 4 hour treatment
Method: In additional experiments, cells were washed with PBS, before being lysed in RIPA buffer supplemented with 1×HALT™ protease inhibitor cocktail (Thermo Scientific) for 10 min on ice, followed by low-amplitude sonication for 10 seconds at 4° C. (Q125, QSonica, USA). In soluble material was removed by centrifugation at 20,000×g for 20 min before protein content was quantified by BCA assay (Pierce). […] Blots were imaged using fluorescence-labeled secondary antibodies (LI-COR) on the OdysseyCLxImager (LI-COR).

BRD4(1) = BRD4(1) (Homo sapiens, UniProt O60885); assay: BRD4(1) ligand-displacement AlphaScreen; type: binding; parameters: substituting protein and biotin-probe components for BRD4(1) protein at 20 nM final; His tag (inferred from Ni-coated acceptor beads)
BRD9 [3] = molecular target: T2, BRD9; assay: BRD9 immunoblot in MM1S CRBN knockout cells; settings: MM.1S CRBN knockout cell line, 4 hour treatment, indicated doses
Method: (§2) In additional experiments, cells were washed with PBS, before being lysed in RIPA buffer supplemented with 1×HALT™ protease inhibitor cocktail (Thermo Scientific) for 10 min on ice, followed by low-amplitude sonication for 10 seconds at 4° C. […] In soluble material was removed by centrifugation at 20,000×g for 20 min before protein content was quantified by BCA assay (Pierce). […] Blots were imaged using fluorescence-labeled secondary antibodies (LI-COR) on the OdysseyCLxImager (LI-COR).

MOLM-13 cell line = assay: ATPlite viability assay, MOLM-13; settings: MOLM-13, 72 hours; in words
Method: (§3) 500 cells/well were plated at a volume of 40 μL/well in white tissue culture treated 384 well assay plates (Thermo Scientific) before DMSO compound stock was added from pre-diluted plates by pin transfer using a Janus Workstation (PerkinElmer, USA). […] Assay plates were allowed to equilibrate to RT for 30 min before reconstituted ATPlite 1 Step reagent (Perkin Elmer) was dispensed at 1:1 volume/well by EL406 automated liquid handler (Biotek, USA).

BRD7 [4] = molecular target: BRD7 (Homo sapiens, UniProt Q9NPI1); assay: BRD7 immunoblot in MOLM-13; settings: MOLM-13, 4 hour treatment
Target sequence in this assay (Q9NPI1 whole entry): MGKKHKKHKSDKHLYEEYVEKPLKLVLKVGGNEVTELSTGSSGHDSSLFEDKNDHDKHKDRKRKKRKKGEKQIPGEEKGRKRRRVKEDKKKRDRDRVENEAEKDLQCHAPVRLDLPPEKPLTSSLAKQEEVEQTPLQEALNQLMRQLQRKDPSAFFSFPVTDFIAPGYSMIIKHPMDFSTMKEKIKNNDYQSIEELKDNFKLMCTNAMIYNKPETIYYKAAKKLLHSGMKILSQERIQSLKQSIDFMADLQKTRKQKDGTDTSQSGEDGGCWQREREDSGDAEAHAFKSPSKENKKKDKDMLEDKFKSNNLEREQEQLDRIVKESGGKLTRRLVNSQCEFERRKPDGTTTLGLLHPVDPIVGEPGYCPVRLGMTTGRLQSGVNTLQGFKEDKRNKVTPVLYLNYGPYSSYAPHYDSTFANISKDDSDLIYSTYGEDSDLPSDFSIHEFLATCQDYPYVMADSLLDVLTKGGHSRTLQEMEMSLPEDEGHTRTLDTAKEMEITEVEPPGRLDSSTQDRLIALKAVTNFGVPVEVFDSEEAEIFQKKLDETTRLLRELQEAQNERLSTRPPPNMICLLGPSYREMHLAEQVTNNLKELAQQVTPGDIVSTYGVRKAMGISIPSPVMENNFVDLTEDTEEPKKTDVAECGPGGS
Method: as §2

BRD3(2) = molecular target: T3, BRD3(2) (Homo sapiens, UniProt Q15059); assay: BromoScan single-point screen; type: binding; settings: percent of protein captured on solid support vs control
T3 construct: utilizing DNA-tagged bromodomain and immobilized ligand attached to solid support
T3 sequence (Q15059 306-415 limits assumed): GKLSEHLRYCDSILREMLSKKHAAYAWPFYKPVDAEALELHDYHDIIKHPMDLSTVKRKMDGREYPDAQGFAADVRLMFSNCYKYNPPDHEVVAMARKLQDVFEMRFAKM
Text: (§1) The BromoScan is an assay that measures the engagement of compounds with bromodomain proteins by utilizing DNA-tagged bromodomain and immobilized ligand attached to solid support. In the control test, DNA-tagged bromodomain binds to the ligand and the bromodomain is captured on the solid support. Compounds that compete for the bromodomain binding location on the ligand will prevent the bromodomain from binding, resulting in less protein captured on the solid support.

BRPF3 = molecular target: T4, BRPF3 (Homo sapiens, UniProt Q9ULD4); assay: BromoScan single-point screen; type: binding; settings: percent of protein captured on solid support vs control
T4 construct: utilizing DNA-tagged bromodomain and immobilized ligand attached to solid support
T4 sequence (Q9ULD4 589-693 limits assumed): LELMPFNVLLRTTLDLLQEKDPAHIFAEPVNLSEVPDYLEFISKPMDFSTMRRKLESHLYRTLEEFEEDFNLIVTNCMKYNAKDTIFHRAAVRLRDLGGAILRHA
Text: as §1

SMARCA4 = molecular target: T5, SMARCA4 (Homo sapiens, UniProt P51532); assay: BromoScan single-point screen; type: binding; settings: percent of protein captured on solid support vs control
T5 construct: utilizing DNA-tagged bromodomain and immobilized ligand attached to solid support
T5 sequence (P51532 1453-1564 limits assumed): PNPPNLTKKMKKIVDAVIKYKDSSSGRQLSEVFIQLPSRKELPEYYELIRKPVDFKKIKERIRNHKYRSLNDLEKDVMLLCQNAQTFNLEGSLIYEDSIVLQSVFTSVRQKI
Text: as §1

BRD7 [5] = molecular target: T6, BRD7 (Homo sapiens, UniProt Q9NPI1); assay: BromoScan single-point screen; type: binding; settings: percent of protein captured on solid support vs control
T6 construct: utilizing DNA-tagged bromodomain and immobilized ligand attached to solid support
Text: as §1
T6 sequence (Q9NPI1 131-235 limits assumed): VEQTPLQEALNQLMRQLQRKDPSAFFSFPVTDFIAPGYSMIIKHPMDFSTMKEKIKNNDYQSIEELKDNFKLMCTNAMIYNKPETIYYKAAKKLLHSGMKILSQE

BRD1 = molecular target: T7, BRD1 (Homo sapiens, UniProt O95696); assay: BromoScan single-point screen; type: binding; settings: percent of protein captured on solid support vs control
T7 construct: utilizing DNA-tagged bromodomain and immobilized ligand attached to solid support
T7 sequence (O95696 562-666 limits assumed): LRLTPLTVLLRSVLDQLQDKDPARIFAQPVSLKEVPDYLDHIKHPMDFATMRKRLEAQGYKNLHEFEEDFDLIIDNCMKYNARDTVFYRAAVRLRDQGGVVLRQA
Text: as §1

PCAF = molecular target: T8, PCAF (Homo sapiens, UniProt Q92831); assay: BromoScan single-point screen; type: binding; settings: percent of protein captured on solid support vs control
T8 construct: utilizing DNA-tagged bromodomain and immobilized ligand attached to solid support
T8 sequence (Q92831 723-827 limits assumed): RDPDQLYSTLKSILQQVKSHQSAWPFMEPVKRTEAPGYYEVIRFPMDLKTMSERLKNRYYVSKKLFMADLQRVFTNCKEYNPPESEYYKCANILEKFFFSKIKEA
Text: as §1

PBRM1(5) = molecular target: T9, PBRM1(5) (Homo sapiens, UniProt Q86U86); assay: BromoScan single-point screen; type: binding; settings: percent of protein captured on solid support vs control
T9 construct: utilizing DNA-tagged bromodomain and immobilized ligand attached to solid support
T9 sequence (Q86U86 653-763 limits assumed): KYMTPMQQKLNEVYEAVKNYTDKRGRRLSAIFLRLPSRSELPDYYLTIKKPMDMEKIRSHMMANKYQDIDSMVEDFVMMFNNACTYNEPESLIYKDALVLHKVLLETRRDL
Text: as §1

BRD9 [6] = molecular target: T10, BRD9 (Homo sapiens, UniProt Q9H8M2); assay: BromoScan single-point screen; type: binding; settings: percent of protein captured on solid support vs control
T10 construct: utilizing DNA-tagged bromodomain and immobilized ligand attached to solid support
Text: as §1

BAZ^2A = molecular target: T11, BAZ^2A (Homo sapiens, UniProt Q9UIF9); assay: BromoScan single-point screen; type: binding; settings: percent of protein captured on solid support vs control
T11 construct: utilizing DNA-tagged bromodomain and immobilized ligand attached to solid support
T11 sequence (Q9UIF9 1793-1897 limits assumed): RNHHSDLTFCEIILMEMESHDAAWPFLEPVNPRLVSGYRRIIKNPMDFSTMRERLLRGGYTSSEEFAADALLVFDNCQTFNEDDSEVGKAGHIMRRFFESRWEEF
Text: as §1

PBRM1(2) = molecular target: T12, PBRM1(2) (Homo sapiens, UniProt Q86U86); assay: BromoScan single-point screen; type: binding; settings: percent of protein captured on solid support vs control
T12 construct: utilizing DNA-tagged bromodomain and immobilized ligand attached to solid support
T12 sequence (Q86U86 177-287 limits assumed): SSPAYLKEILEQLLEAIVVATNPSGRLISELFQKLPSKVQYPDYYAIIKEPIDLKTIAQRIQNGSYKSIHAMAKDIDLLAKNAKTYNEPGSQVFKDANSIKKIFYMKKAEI
Text: as §1

TRIM33 (PHD, Bromo.) = assay: BromoScan single-point screen; type: binding, human; settings: percent of protein captured on solid support vs control
Text: as §1

[7] = molecular target: BRD4:CRBN-DDB1 protein complex (Homo sapiens, UniProt O60885+Q96SW2); assay: CRBN-DDB1/BRD4 dimerization assay (luminescence); settings: in words
Method: (§4) To detect CRBN-DDBI/BRD4 dimerization, we adapted bead-based AlphaScreen technology. […] Compounds were then pinned at 100 nL per well from DMSO stock. After 1 incubation at room temperature. Nickel Chelate AlphaLISA Acceptor and Glutathione AlphaLISA Donor beads (PerkinElmer) were diluted in assay buffer to 20 μg/mL and added at 20 μl per well.

[8] = molecular target: BRD9:CRBN-DDB1 protein complex (Homo sapiens, UniProt Q96SW2+Q9H8M2); assay: BRD9:CRBN-DDB1 dimerization assay (luminescence); settings: for formation of the BRD9:CRBN-DDB1 protein complex: in words
Method: To measure this activity, a homogenous luminescence assay was developed to report on compound-induced proximity of BRD9 and CRBN.
as §4

[9] = system: MM.1S multiple myeloma line; assay: ATPlite viability assay, MM.1S; settings: 72 hour treatment, in words
Method: as §3

[10] = luminescence detection of dimerization assay

IC50 (BRD9 [1]): 12.3 nM | BRD9 degradation / cellular potency, in words (BRD9 [2]): superior | IC50 (BRD4(1)): 1710 nM | BRD9 degradation (immunoblot) (BRD9 [3]): little to no BRD9 degradation | BRD7 degradation (immunoblot) (BRD7 [4]): degradation was observed | % Ctrl @ 1 μM (BRD3(2)): 19 % Ctrl | % Ctrl @ 1 μM (BRPF3): 85 % Ctrl | % Ctrl @ 1 μM (SMARCA4): 41 % Ctrl | % Ctrl @ 1 μM (BRD7 [5]): 0 % Ctrl | % Ctrl @ 1 μM (BRD1): 42 % Ctrl | % Ctrl @ 1 μM (PCAF): 55 % Ctrl | % Ctrl @ 1 μM (PBRM1(5)): 71 % Ctrl | % Ctrl @ 1 μM (BRD9 [6]): 0.25 % Ctrl | % Ctrl @ 1 μM (BAZ^2A): 42 % Ctrl | % Ctrl @ 1 μM (PBRM1(2)): 68 % Ctrl | BRD9:CRB9-DDB1 AUC [8, 10]: 80620 | BRD9:CRB9-DDB1 Cmax [8, 10]: 26.2 nM
SMILES: COc1cc(-c2cn(C)c(=O)c3cc(C(=N)NC4CCS(=O)(=O)CC4)sc23)ccc1OCC(=O)NCCCCCCCCNc1cccc2c1CN(C1CCC(=O)NC1=O)C2=O (centres unmarked) [Compound I-17]
BRD4 degradation (immunoblot) (BRD4): Off target degradation of BRD4, observed at high concentrations | half-maximal anti-proliferative concentration (MOLM-13 cell line): low nanomolar | maximal efficacy on cell proliferation (MOLM-13 cell line): significantly exceeded that of the more selective I-25 | % Ctrl @ 1 μM (TRIM33 (PHD, Bromo.)): 100 % Ctrl | formation of the BRD4:CRBN-DDB1 protein complex [7]: effectively induce biochemical association | BRD9:CRBN-DDB1 dimerization, comparison in words [8]: superior; also recorded: effectively induce biochemical association | formation of the BRD9:CRBN-DDB1 protein complex ([8]; relative to unmodified pomalidomide): significantly induce formation of the complex | formation of the BRD9:CRBN-DDB1 protein complex ([8]; relative to unmodified thalidomide): significantly induce formation of the complex | efficacy on viability [9]: comparable efficacy

— patent US11285218B2, “Degradation of bromodomain-containing protein 9 (BRD9) by conjugation of BRD9 inhibitors with E3 ligase ligand and methods of use” (Dana-Farber Cancer Institute, Inc., priority 2016, dated 2022)
